Data: publication PMC6407917, “Identification of GSK3186899/DDD853651 as a Preclinical Development Candidate for the Treatment of Visceral Leishmaniasis” (Journal of Medicinal Chemistry, 2018)

Experiments:
Test in all cases: biochemical
Parameters in all cases: species or system HEK293/K-562/placenta mixed human extract; Kinobeads chemoproteomic competition binding, quantified by TMT LC-MS/MS, dose response up to 20 uM
SERPINB2 = SERPINB2 (Homo sapiens, UniProt P05120)
KIT = KIT (Homo sapiens, UniProt P10721)
PDPK1 = PDPK1 (Homo sapiens, UniProt O15530)
MYLK = MYLK (Homo sapiens, UniProt Q15746)
TYRO3 = TYRO3 (Homo sapiens, UniProt Q06418)
PRKAA2 = PRKAA2 (Homo sapiens, UniProt P54646)
PKMYT1 = PKMYT1 (Homo sapiens, UniProt Q99640)
CDK2 = CDK2 (Homo sapiens, UniProt P24941)
MAP3K5 = MAP3K5 (Homo sapiens, UniProt Q99683)
PRKDC = PRKDC (Homo sapiens, UniProt P78527)
PRKAG1 = PRKAG1 (Homo sapiens, UniProt P54619)
ACVR1 = ACVR1 (Homo sapiens, UniProt Q04771)
NLK = NLK (Homo sapiens, UniProt Q9UBE8)
CAMKK1 = CAMKK1 (Homo sapiens, UniProt Q8N5S9)
ITK = ITK (Homo sapiens, UniProt Q08881)
CSNK2A1 = CSNK2A1 (Homo sapiens, UniProt P68400)
EPHB6 = EPHB6 (Homo sapiens, UniProt O15197)
NTRK1 = NTRK1 (Homo sapiens, UniProt P04629)
MAPK7 = MAPK7 (Homo sapiens, UniProt Q13164)
MINK1 = MINK1 (Homo sapiens, UniProt Q8N4C8)
CSNK2A2 = CSNK2A2 (Homo sapiens, UniProt P19784)
CSNK2A2, sequence (P19784 whole entry): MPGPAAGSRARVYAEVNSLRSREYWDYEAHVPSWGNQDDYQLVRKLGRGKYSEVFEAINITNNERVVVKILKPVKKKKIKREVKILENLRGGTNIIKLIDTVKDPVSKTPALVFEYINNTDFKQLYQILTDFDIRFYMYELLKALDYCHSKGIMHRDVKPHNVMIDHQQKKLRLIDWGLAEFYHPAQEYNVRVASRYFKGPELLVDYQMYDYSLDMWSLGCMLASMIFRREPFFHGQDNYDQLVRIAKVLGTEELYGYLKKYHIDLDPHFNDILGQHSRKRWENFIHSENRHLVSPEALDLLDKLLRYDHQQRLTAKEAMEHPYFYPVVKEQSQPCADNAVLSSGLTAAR

PRKAA2, sequence (P54646 whole entry): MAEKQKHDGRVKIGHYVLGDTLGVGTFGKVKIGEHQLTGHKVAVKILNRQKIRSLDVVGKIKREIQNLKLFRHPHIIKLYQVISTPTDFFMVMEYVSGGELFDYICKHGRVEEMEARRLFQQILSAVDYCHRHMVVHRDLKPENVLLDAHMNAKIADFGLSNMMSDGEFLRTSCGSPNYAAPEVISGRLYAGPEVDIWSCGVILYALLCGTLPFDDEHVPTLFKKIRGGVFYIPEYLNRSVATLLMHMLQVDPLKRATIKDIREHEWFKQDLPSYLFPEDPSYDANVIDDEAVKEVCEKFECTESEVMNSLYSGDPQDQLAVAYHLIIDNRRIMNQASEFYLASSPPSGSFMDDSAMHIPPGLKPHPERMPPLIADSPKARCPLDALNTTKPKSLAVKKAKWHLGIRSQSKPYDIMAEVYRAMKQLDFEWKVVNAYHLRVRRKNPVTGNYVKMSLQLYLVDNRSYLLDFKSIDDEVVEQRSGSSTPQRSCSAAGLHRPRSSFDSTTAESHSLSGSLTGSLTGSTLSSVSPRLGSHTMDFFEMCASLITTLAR
PRKAG1, sequence (P54619 whole entry): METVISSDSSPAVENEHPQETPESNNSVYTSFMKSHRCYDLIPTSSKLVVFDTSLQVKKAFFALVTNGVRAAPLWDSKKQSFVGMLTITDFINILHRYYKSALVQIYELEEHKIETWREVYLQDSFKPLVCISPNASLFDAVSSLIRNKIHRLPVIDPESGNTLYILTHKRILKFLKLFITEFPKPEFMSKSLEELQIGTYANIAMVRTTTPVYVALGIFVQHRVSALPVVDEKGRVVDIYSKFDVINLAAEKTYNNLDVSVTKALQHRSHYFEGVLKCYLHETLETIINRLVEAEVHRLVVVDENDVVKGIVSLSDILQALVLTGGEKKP
ACVR1, sequence (Q04771 whole entry): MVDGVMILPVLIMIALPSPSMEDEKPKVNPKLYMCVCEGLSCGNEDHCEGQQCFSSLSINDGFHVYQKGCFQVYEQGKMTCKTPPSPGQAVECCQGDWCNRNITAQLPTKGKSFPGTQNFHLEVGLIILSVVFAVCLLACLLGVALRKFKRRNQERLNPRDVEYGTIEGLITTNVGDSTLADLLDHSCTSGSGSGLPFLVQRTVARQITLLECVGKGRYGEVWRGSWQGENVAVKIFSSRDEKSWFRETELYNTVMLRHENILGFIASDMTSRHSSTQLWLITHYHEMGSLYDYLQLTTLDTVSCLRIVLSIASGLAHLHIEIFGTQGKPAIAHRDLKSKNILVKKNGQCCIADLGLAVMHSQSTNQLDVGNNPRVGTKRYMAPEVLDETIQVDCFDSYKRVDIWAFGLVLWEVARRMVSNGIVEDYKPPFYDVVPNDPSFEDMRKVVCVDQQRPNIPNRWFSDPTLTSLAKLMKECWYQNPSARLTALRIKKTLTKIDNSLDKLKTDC
PKMYT1, sequence (Q99640 whole entry): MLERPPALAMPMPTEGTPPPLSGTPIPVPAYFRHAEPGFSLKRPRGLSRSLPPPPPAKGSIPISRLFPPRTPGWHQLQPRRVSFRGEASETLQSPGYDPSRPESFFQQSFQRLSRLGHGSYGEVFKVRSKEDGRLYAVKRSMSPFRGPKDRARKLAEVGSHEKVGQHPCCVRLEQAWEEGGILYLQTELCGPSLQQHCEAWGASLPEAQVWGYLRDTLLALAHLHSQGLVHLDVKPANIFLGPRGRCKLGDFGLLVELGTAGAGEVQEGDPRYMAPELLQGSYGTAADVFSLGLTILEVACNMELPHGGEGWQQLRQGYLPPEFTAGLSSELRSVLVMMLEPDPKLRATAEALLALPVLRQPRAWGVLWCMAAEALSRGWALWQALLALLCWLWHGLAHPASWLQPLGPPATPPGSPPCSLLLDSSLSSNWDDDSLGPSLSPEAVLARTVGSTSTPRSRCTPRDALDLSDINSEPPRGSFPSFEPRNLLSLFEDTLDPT
ITK, sequence (Q08881 whole entry): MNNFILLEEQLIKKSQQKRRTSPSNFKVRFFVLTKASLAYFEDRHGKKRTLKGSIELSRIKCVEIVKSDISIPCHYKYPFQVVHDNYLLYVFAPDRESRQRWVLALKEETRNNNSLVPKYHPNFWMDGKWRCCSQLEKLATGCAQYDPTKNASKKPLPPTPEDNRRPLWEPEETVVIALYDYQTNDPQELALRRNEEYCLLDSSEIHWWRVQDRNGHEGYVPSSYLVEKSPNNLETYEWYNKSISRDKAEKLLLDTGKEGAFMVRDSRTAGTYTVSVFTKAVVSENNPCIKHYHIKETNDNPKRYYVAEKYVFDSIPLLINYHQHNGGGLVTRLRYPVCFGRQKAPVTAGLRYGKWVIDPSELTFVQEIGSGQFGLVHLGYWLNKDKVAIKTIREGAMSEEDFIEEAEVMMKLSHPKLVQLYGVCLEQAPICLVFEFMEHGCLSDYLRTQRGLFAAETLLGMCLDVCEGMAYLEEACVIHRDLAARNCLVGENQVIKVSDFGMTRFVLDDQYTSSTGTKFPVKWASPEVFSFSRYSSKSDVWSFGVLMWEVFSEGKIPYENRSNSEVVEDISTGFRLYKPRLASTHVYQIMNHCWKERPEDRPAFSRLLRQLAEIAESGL
SERPINB2, sequence (P05120 whole entry): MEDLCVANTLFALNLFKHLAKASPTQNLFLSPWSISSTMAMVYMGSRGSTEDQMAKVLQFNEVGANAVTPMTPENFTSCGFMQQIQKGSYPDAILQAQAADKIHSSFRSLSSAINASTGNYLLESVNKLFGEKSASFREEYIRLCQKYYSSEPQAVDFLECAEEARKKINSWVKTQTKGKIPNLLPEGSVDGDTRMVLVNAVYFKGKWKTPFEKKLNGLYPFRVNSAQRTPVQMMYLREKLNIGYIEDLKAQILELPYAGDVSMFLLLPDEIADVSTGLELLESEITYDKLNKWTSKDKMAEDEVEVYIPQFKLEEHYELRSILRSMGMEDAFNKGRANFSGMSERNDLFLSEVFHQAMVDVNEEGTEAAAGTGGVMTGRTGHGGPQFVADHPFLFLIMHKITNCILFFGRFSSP
MINK1, sequence (Q8N4C8 whole entry): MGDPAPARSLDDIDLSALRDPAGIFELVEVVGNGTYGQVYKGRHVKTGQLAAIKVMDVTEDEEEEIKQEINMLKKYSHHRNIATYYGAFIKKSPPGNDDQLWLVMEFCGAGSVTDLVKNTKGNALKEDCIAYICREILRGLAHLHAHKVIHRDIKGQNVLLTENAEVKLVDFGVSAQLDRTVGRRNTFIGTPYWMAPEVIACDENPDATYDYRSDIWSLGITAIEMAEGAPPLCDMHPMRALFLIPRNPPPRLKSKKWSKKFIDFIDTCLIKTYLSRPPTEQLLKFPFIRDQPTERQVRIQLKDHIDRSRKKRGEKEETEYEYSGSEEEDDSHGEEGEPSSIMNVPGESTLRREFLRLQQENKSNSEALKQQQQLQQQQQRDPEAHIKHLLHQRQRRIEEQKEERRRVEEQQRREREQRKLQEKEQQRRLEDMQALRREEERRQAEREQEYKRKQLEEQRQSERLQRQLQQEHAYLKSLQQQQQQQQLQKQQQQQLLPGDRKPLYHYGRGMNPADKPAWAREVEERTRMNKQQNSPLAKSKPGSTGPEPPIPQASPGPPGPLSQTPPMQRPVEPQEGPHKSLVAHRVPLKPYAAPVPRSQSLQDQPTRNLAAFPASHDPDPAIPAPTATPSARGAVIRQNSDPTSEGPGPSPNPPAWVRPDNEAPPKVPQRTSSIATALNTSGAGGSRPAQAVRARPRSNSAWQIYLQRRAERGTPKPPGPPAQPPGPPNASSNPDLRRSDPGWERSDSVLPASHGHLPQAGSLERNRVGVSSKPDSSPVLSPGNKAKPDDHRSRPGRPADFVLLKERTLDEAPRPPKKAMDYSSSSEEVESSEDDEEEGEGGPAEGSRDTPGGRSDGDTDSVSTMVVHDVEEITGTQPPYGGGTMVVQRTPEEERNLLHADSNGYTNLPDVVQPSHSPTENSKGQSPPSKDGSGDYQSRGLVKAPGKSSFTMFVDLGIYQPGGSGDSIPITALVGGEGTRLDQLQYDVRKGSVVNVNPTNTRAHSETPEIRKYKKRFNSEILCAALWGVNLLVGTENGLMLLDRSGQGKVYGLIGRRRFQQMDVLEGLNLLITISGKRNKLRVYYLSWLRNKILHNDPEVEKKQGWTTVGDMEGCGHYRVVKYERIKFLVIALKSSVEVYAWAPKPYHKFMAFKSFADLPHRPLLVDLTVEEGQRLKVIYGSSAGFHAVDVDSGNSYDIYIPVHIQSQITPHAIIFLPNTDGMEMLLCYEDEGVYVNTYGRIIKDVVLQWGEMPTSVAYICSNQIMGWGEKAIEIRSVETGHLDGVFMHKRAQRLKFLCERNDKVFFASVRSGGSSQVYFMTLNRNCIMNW
CSNK2A1, sequence (P68400 whole entry): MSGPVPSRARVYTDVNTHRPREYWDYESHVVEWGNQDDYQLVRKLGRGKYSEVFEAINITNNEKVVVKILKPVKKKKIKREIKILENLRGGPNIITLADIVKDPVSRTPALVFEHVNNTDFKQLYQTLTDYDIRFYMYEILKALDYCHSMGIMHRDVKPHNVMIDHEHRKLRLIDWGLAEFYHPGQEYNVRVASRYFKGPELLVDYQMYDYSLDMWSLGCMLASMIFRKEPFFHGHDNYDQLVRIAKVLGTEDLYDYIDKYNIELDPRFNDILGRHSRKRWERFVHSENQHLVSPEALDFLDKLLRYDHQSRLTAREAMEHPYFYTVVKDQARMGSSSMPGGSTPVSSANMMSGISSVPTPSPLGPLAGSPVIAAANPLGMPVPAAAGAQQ

`COc1nc(N[C@H]2CC[C@H](NS(=O)(=O)CC(C)C)CC2)nc2[nH]nc(N3CCOC[C@H]3C)c12` [compound 39, N-(trans-4-((4-Methoxy-3-((R)-3-methylmorpholino)-1H-pyrazolo[3,4-d]pyrimidin-6-yl)amino)cyclohexyl)-2-methylpropane-1-sulfonamide] gave an IC50 (SERPINB2) of at least 20 µM, an IC50 (KIT) of at least 20 µM and an IC50 (PDPK1) of at least 20 µM. The IC50 (MYLK) was at least 20 µM, the IC50 (TYRO3) was at least 20 µM and the IC50 (PRKAA2) was at least 20 µM. It also gave an IC50 (PKMYT1) of at least 20 µM, an IC50 (CDK2) of 4.5 µM and an IC50 (MAP3K5) of at least 20 µM. For the same compound, the IC50 (PRKDC) was at least 20 µM, the IC50 (PRKAG1) was at least 20 µM and the IC50 (ACVR1) was at least 20 µM. It also gave an IC50 (NLK) of 3.5 µM, an IC50 (CAMKK1) of at least 20 µM and an IC50 (ITK) of at least 20 µM. For the same compound, the IC50 (CSNK2A1) was at least 20 µM, the IC50 (EPHB6) was 3.3 µM and the IC50 (NTRK1) was at least 20 µM. It also gave an IC50 (MAPK7) of at least 20 µM, an IC50 (MINK1) of at least 20 µM and an IC50 (CSNK2A2) of at least 20 µM.
